# From patent US20030088077A1, “Metal chelated dyestuff for inkjet recording and aqueous inkjet recording liquid using the same” (MITSUBISHI CHEMICAL CORPORATION, priority 1999, published 2003)
# Columns and labels:
# [1] = Light resistance of a recorded image (xenon fade-meter); format: physicochemical; settings: 150 to 160 kJ/m^2 for 80 hours, specialized photoprint paper, larger value = more fading
# Description: (a) Light resistance of a recorded image:
# Using a xenon fade-meter (manufactured by Atlas), a recording paper was irradiated at an irradiation energy of 150 to 160 kJ/m^2 for 80 hours, and the degree of discoloring and fading before and after the irradiation was measured by Macbeth densitometer (Gretag Macbeth SPM50, manufactured by Macbeth), and quantified as the form of a ΔE value. Incidentally, the ΔE value is a numerical value expressing the degree of discoloring and fading. That is, the larger the value is, the larger the degree of discoloring and fading is and the lower the light fastness of the image is. In the case of the specialized photoprint paper, a good result was obtained at the above measurement wherein the ΔE value was 2.1.
# [2] = Indoor discoloring and fading property of a printed image (ozone resistance); format: physicochemical; settings: ozone concentration 3 ppm, humidity 50 to 60%, 2 hours, light-shielded; specialized photoprint paper
# Description: (b) Indoor discoloring and fading property of a printed image (ozone resistance):
# In a light-shielded tank having an ozone concentration of 3 ppm, a printed matter was left on standing under a humidity of 50 to 60% for 2 hours, and the degree of discoloring and fading before and after the standing was measured by Macbeth densitometer (Gretag Macbeth SPM50, manufactured by Macbeth), and quantified as the form of a ΔE value. In the case of the specialized photoprint paper, a good result was obtained at the above measurement wherein the ΔE value was 11.2.
compound,measurement,setting,value
N#Cc1nc(/N=N/c2ccc(N(CCC(=O)[O-])CCC(=O)[O-])cc2N)[nH]c1C#N.[Na+].[Na+] [Comparative dyestuff b],Light resistance (ΔE),[1],7.0
same,Indoor discoloring & fading property (ΔE),[2],4.3
